Reference: PMC6302903, “Protein and Chemical Determinants of BL-1249 Action and Selectivity for K2P Channels” (ACS Chemical Neuroscience, 2018)

What was measured:
[1] = target: T1, K2P4.1(TRAAK) (Mus musculus, UniProt O88454); experiment: TEVC of K2P4.1(TRAAK) in Xenopus oocytes; format: cell-based; details: I/I0 at 0 mV
T1 construct: expressed in transfected cells; host or cells: Xenopus laevis oocytes injected with mRNA made from pGEMHE/pMO
T1 sequence (O88454 1-398): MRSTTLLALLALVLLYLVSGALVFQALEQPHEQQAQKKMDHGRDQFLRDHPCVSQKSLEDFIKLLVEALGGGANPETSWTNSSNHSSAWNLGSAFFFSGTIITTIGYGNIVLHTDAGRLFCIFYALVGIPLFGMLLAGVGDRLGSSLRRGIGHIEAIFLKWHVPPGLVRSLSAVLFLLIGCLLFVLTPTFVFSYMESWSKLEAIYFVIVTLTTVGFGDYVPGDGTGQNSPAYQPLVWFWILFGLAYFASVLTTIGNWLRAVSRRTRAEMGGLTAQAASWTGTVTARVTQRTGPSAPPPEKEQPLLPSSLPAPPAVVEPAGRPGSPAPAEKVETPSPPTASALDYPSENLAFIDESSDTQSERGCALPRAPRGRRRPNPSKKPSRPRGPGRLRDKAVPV
Excerpt: (§1) Constructs for murine K2P channels, including K2P2.1(TREK-1) (Gene ID 16526), K2P10.1(TREK-2) (Gene ID 72258), K2P4.1(TRAAK) (Gene ID 16528), K2P5.1(TASK-2) (Gene ID 16529), K2P3.1(TASK-1) (Gene ID 16527), K2P9.1(TASK-3) (Gene ID 223604), and K2P18.1(TRESK) (Gene ID 332396) in pGEMHE/pMO, were used for Xenopus oocyte experiments as previously described.[10],[26] Murine K2P2.1(TREK-1) (Gene ID 16526) was expressed in HEK-293 cells using a pIRES-EGFP construct as previously described.[26] Murine K2P13.1(THIK-1) (Gene ID 217826) and K2P1.1(TWIK-1) (Gene ID 16525) were cloned into pGEMHE/pMO for use in Xenopus oocytes. Chimeras were designed using EMBOSS Needle pairwise sequence alignment tool[58] to match homologous helices in K2P2.1(TREK-1) and K2P4.1(TRAAK) and were assembled using the Gibson assembly method.[59] Chimera boundaries are Thr152 (TREK-1/AAK M2-C), Trp199 (TREK-1/AAK M3-C), Y272 (TREK-1/AAK M4-C), Thr114 (TRAAK/EK-1 M2-C), Trp161 (TRAAK/EK-1 M3-C), and Tyr234 K2P4.1(TRAAK). All sequences were verified using DNA sequencing.
(§2) Xenopus laevis oocytes were harvested in accordance with UCSF IACUC protocol AN129690 and digested in calcium-free ND-96 (96 mM NaCl, 2 mM KCl, 3.8 mM MgCl2) immediately following harvest, as previously described.[6],[10] Digested oocytes were maintained in standard ND96 (96 mM NaCl, 2 mM KCl, 1.8 mM CaCl2, 2 mM MgCl2) with antibiotics (100 units mL^–1 penicillin, 100 μg mL^–1 streptomycin, 50 μg mL^–1 gentimycin). Defolliculated stage V–VI oocytes were injected with 0.2–6.0 ng of mRNA in 50 nL, and currents were recorded 24–48 h after injection. mRNA was synthesized from plasmid DNA using mMessage mMachine Kit (T7 promoter, Ambion, Life Technologies) and purified using RNEasy Kit (Qiagen). Injected oocytes were impaled with two standard microelectrodes (0.2–1.0 MΩ) filled with 3 M KCl and subjected to constant perfusion of standard ND96 during recording. Currents were amplified using the GeneClamp 500B (MDS Analytical Technologies) amplifier controlled by the pClamp software (Molecular Devices). Data were digitized at 1 kHz using Digidata 1332A (MDS Analytical Technologies). For all experiments with small molecules, basal currents were evoked using 1 s long ramps from −150 to +50 mV under constant perfusion of ND96. Once stabilized basal currents were recorded, compounds were perfused at various concentrations in standard ND96 and currents were allowed to increase to stabilization before recording final current. Fold activation upon compound application is expressed as I/I0 (0 mV), derived from the current at 0 mV in the presence of compound divided by the basal current at 0 mV in standard ND96 without compound. Data were analyzed and plotted using Graphpad Prism Version 5 (GraphPad Software, San Diego California USA, www.graphpad.com). […] In the case of BL-1249-acid EC50 estimation, upper bound of I/I0 was set to 20 to account for the strong stimulation of BL-1249-acid.

[2] = target: T2, K2P2.1(TREK-1) (Mus musculus, UniProt P97438); experiment: TEVC of K2P2.1(TREK-1) in Xenopus oocytes; format: cell-based; set-up: expressed in transfected cells; host or cells: Xenopus laevis oocytes injected with mRNA made from pGEMHE/pMO; details: for effect on K2P2.1(TREK-1) current (in words): dose-response
T2 sequence (P97438 1-411 isoform P97438-2): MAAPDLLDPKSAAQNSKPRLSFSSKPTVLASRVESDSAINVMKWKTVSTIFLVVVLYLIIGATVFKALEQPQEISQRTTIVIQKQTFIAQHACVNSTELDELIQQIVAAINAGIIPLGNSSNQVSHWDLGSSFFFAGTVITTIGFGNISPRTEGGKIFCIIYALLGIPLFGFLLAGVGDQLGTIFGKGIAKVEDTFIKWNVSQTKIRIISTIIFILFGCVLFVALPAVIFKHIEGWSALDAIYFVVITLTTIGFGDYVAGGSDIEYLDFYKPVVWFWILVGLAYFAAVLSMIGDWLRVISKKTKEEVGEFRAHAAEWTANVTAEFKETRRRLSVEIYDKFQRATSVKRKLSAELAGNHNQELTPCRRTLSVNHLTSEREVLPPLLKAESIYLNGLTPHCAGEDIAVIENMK
Excerpt: as §1, §2

[3] = tested on: K2P18.1(TRESK); set-up: method as in PMID 27641472; details: cited from earlier work
[4] = target: T3, TREK-1/AAK M4-C (Mus musculus, UniProt O88454+P97438); experiment: TEVC of chimera TREK-1/AAK M4-C; format: cell-based; details: Xenopus oocytes
T3 construct: Y272 (TREK-1/AAK M4-C); expressed in transfected cells; host or cells: Xenopus laevis oocytes, mRNA injected; chimera built by Gibson assembly
T3 sequence (P97438+O88454 with tags, fused parts or gaps P97438:V273L/P97438:V280F/P97438:A287S/P97438:S290T/P97438:M291T/P97438:D294N): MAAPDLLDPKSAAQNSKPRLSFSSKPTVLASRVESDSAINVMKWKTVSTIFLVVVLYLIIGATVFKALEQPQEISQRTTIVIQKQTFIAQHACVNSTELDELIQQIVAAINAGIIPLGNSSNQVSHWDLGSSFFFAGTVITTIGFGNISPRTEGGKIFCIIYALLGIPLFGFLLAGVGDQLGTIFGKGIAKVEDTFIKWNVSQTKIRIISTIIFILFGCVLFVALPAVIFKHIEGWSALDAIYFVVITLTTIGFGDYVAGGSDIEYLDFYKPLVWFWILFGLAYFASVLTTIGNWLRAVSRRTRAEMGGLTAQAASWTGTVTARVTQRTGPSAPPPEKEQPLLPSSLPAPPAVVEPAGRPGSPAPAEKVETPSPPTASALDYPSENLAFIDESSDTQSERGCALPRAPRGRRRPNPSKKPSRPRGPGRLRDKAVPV

[5] = target: T4, TRAAK/EK-1 M3-C (Mus musculus, UniProt O88454+P97438, A173T/A231F/D223G/E202D/F190V/F242V/G166T/G224S/G226I/H162N/I179F/I208V/K200A/L167K/L171I/L175I/L177I/L182V/L186A/L235V/M195I/N228Y/N256D/P164S/P165Q/P221A/P230D/Q227E/Q233K/S170I/S193K/S197G/S229L/S249A/T187L/T189A/T225D/T252S/T253M/V168I/V174I/V191I/V209I/V214I/Y194H); experiment: TEVC of chimera TRAAK/EK-1 M3-C; format: cell-based; details: Xenopus oocytes
T4 construct: Trp161 (TRAAK/EK-1 M3-C); expressed in transfected cells; host or cells: Xenopus laevis oocytes, mRNA injected; chimera built by Gibson assembly

[6] = target: T5, TRAAK/EK-1 M4-C (Mus musculus, UniProt O88454+P97438, F242V/L235V/N256D/S249A/T252S/T253M); experiment: TEVC of chimera TRAAK/EK-1 M4-C; format: cell-based; details: Xenopus oocytes
T5 construct: and Tyr234 K2P4.1(TRAAK); expressed in transfected cells; host or cells: Xenopus laevis oocytes, mRNA injected; chimera built by Gibson assembly

[7] = target: T6, TREK-1/AAK M3-C (Mus musculus, UniProt O88454+P97438); experiment: TEVC of chimera TREK-1/AAK M3-C; format: cell-based; details: Xenopus oocytes
T6 construct: Trp199 (TREK-1/AAK M3-C); expressed in transfected cells; host or cells: Xenopus laevis oocytes, mRNA injected; chimera built by Gibson assembly
T6 sequence (P97438+O88454 with tags, fused parts or gaps P97438:N200H/P97438:S202P/P97438:Q203P/P97438:T204G/P97438:K205L/P97438:I206V/P97438:I208S/P97438:I209L/P97438:T211A/P97438:I212V/P97438:I213L/P97438:I215L/P97438:F217I/P97438:V220L/P97438:A224L/P97438:L225T/P97438:A227T/P97438:V228F/P97438:I229V/P97438:K231S/P97438:H232Y/P97438:I233M/P97438:G235S/P97438:A238K/P97438:D240E/P97438:V246I/P97438:I247V/P97438:I252V/P97438:A259P/P97438:G261D/P97438:S262G/P97438:D263T/P97438:I264G/P97438:E265Q/P97438:Y266N/P97438:L267S/P97438:D268P/P97438:F269A/P97438:K271Q/P97438:V273L/P97438:V280F/P97438:A287S/P97438:S290T/P97438:M291T/P97438:D294N): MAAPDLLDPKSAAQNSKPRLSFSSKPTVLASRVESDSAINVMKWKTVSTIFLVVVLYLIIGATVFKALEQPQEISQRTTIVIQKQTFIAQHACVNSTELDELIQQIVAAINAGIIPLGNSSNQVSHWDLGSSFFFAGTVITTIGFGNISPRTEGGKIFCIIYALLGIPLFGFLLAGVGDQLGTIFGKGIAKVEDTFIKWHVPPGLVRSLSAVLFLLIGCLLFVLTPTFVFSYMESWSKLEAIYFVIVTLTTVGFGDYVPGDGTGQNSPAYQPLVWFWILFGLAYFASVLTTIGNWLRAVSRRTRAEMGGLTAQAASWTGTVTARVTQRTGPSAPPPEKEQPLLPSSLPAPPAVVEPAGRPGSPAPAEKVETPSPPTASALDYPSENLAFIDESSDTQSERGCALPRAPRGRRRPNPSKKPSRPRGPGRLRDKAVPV

[8] = target: TREK-1/AAK M2-C (Mus musculus, UniProt O88454+P97438); experiment: TEVC of chimera TREK-1/AAK M2-C; format: cell-based; details: Xenopus oocytes
[9] = target: T7, TRAAK/EK-1 M2-C (Mus musculus, UniProt O88454+P97438, A151S/D143N/F160Y/H141A/P165L/Q138H/R166H/S147A/S164V/V139S/V154I); experiment: TEVC of chimera TRAAK/EK-1 M2-C; format: cell-based; details: Xenopus oocytes
T7 construct: Thr114 (TRAAK/EK-1 M2-C); expressed in transfected cells; host or cells: Xenopus laevis oocytes, mRNA injected; chimera built by Gibson assembly

[10] = extracellular application, fold activation I/I0 at 0 mV

T4 sequence (O88454+P97438 fused with the stated changes): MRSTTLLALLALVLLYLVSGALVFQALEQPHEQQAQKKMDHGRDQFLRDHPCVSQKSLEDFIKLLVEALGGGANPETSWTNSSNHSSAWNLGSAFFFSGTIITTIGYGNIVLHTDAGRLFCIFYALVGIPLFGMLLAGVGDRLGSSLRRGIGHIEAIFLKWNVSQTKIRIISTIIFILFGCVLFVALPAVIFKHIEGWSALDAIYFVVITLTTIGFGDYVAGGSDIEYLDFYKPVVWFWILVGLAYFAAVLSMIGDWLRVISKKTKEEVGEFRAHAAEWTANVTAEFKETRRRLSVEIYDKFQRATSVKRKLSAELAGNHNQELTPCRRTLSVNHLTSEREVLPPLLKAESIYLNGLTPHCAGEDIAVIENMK
T5 sequence (O88454+P97438 fused with the stated changes): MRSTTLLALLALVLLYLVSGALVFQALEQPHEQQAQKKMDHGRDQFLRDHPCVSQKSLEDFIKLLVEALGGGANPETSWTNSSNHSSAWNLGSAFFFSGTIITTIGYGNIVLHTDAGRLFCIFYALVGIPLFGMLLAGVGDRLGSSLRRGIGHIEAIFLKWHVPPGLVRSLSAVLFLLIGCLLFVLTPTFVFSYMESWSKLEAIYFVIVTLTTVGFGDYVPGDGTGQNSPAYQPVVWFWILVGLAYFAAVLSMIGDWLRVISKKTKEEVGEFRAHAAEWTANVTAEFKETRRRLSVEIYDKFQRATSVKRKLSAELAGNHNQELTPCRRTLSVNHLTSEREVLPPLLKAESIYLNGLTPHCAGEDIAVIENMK
T7 sequence (O88454+P97438 fused with the stated changes): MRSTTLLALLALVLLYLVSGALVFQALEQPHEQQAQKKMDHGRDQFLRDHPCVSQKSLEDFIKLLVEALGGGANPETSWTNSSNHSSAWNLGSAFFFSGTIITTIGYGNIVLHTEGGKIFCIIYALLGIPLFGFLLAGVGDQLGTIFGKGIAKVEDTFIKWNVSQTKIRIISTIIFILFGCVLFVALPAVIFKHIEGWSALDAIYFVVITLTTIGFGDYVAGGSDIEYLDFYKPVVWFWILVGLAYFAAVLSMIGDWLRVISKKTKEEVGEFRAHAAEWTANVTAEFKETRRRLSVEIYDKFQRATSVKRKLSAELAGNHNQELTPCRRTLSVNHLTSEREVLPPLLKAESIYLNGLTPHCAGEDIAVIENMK
Chain of TREK-1/AAK M2-C (P97438 16-167, one chain of several): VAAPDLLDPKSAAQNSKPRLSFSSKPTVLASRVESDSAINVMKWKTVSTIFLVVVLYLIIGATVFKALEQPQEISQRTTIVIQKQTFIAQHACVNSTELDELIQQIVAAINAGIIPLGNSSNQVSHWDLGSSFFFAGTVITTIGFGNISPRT

SMILES | EC50 [1] | EC50 [2, 10] | effect on K2P2.1(TREK-1) current (in words) [2] | further results
c1ccc2c(c1)Nc1c(-c3nnn[nH]3)cccc1C21CCCCC1 [BL-1249-tricycle] | 42 ± 9 µM | 34 ± 6 µM | inhibition between 0.1 and 10 μM followed by activation at higher concentrations | –
c1ccc(Nc2ccccc2-c2nnn[nH]2)cc1 [BL-1249-Ph] | > 200 µM | > 200 µM | only a small amount of stimulatory effect | –
CC1(C)c2cc(Cl)ccc2N(CCc2nn[nH]n2)c2ccc(Cl)cc21 [ML67-33] | – | – | – | EC50 [4]: 42 ± 3 µM; EC50 [5]: 44 ± 14 µM; EC50 [6]: 31 ± 3 µM; EC50 [7]: 49 ± 22 µM; EC50 [8]: 42 ± 3 µM; EC50 [9]: 33 ± 1 µM

More lines, main results first:

EC50 [1] | EC50 [2, 10] | SMILES | effect on K2P2.1(TREK-1) current (in words) [2] | further results
> 200 µM | – | O=C(O)c1ccccc1Nc1cccc2c1CCCC2 [BL-1249-acid] | stronger stimulatory effect on the current than either BL-1249 or BL-1249-amide | functional effect on K2P18.1(TRESK) [3]: inhibitor; loss of potency on K2P2.1(TREK-1) relative to BL-1249-amide [2]: ~2 fold; EC50 ([2]; EC50 estimated imposing an upper boundary of 20 (fold activation, I/I0)): 44 ± 10 µM
> 200 µM | 22 ± 8 µM | NC(=O)c1ccccc1Nc1cccc2c1CCCC2 [BL-1249-amide] | – | –
